Read-outs that look alike come from different tables or passages of the source.
Assays:
human α4β7 = molecular target: T1, human α4β7 (Homo sapiens, UniProt P13612+P26010); test: α4β7-K562 Cell Adhesion Assay (α4β7 Mediated Adhesion/VCAM-1); assay type: cell-based
T1 construct: expressed in transfected cells
T1 sequence (P13612 34-1032): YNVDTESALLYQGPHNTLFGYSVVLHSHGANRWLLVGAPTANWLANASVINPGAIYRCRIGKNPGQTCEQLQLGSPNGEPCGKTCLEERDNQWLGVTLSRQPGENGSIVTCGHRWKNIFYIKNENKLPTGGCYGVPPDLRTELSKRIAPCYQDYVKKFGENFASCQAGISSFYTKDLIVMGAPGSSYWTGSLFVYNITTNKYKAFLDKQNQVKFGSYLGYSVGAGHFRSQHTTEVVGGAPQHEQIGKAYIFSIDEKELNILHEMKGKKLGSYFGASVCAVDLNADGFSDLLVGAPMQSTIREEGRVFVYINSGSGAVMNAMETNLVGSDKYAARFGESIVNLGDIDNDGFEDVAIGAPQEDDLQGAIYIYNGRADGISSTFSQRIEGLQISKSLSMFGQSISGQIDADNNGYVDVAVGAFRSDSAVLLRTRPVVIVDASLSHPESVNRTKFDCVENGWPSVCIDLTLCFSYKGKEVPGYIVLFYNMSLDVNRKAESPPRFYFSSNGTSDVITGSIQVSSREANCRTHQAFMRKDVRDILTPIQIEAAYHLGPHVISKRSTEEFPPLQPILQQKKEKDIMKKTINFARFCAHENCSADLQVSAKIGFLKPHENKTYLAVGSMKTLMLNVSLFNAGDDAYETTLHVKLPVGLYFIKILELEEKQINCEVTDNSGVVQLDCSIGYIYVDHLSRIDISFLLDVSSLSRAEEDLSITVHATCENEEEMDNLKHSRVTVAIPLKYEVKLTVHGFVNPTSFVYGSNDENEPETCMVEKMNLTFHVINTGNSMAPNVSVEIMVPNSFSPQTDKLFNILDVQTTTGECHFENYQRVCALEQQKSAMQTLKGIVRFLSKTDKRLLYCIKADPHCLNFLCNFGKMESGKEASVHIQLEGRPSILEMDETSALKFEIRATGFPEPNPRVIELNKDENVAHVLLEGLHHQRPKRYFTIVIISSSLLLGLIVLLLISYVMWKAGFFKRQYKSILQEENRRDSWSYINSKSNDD
T1 sequence (P26010 20-798): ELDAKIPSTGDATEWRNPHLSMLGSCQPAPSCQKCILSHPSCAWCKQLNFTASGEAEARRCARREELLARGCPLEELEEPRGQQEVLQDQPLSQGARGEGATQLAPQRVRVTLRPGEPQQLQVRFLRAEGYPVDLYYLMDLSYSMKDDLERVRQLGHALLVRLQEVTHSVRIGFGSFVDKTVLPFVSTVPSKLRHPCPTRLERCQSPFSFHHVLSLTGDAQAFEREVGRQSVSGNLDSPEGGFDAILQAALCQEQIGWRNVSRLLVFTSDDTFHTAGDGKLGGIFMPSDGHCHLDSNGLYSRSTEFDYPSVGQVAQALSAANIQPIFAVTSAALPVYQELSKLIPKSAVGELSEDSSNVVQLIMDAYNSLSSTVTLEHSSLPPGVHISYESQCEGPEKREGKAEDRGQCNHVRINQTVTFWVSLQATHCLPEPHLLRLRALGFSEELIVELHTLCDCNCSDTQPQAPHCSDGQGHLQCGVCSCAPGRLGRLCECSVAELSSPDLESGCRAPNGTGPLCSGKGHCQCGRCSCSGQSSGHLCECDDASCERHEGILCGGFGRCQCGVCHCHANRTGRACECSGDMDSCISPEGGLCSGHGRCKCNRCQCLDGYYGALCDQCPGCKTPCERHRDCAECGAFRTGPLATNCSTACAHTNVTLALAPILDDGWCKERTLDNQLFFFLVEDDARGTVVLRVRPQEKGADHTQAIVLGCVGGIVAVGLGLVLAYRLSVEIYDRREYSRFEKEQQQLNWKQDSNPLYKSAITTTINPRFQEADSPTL
Experimental: (§1) α4β7-K562 Cell Adhesion Assay (α4β7 Mediated Adhesion/VCAM-1) Immulon 96 well plates (Dynex) were coated with 100 μL recombinant hVCAM-1 at 4.0 μg/mL in 0.05 M NaCO3 buffer pH 9.0 overnight at 4° C. (R&D Systems). Plates were washed 3 times in PBS with 1% BSA and blocked for 1 h @room temperature in this buffer. PBS was removed and compounds to be tested (50 μL) were added at 2× concentration. A stable cell line of K562 cells expressing human α4β7, (50 μL at 2×10^6/mL) labeled with 5 μM Calcein AM (Molecular Probes) for 1 h at 37° C., were added to each well and allowed to adhere for 1 h at room temperature. Plates were washed 3× in PBS+1% BSA and cells were lysed for 15 minutes in 100 μL of 1 M Tris pH 8.0 with 1% SDS. The plate was read at 485 nm excitation and 530 nm emission.

α4β1 [1] = molecular target: T2, α4β1 (Homo sapiens, UniProt P05556+P13612); test: Ramos Cell Adhesion Assay (α4β1 Mediated Adhesion/VCAM-1); assay type: cell-based; parameters: Ramos Cell Adhesion Assay (α4β1 Mediated Adhesion/VCAM-1); endogenous in cells; host or cells: Ramos cells
Experimental: as §1, with “Ramos” for “α4β7-K562”, “(α4β1” for “(α4β7”, “@ room” for “@room”, “Ramos cells,” for “A stable cell line of K562 cells expressing human α4β7,”

[2] = system: heterotopic heart allograft; conditions: hyperlipidemic rabbit; cited from earlier work
[3] = system: oxazolone-induced contact hypersensitivity; conditions: mouse, 6 mg/kg, sc; cited from earlier work
α4β1 [4] = molecular target: T2, α4β1; conditions: background, literature; cited from earlier work
[5] = K562 cells expressing human α4β7, adhesion to recombinant hVCAM-1, read-out: α4β7 IC50
[6] = Ramos cells, adhesion to recombinant hVCAM-1, read-out: α4β1 IC50

T2 sequence (P05556 21-798, one chain of several): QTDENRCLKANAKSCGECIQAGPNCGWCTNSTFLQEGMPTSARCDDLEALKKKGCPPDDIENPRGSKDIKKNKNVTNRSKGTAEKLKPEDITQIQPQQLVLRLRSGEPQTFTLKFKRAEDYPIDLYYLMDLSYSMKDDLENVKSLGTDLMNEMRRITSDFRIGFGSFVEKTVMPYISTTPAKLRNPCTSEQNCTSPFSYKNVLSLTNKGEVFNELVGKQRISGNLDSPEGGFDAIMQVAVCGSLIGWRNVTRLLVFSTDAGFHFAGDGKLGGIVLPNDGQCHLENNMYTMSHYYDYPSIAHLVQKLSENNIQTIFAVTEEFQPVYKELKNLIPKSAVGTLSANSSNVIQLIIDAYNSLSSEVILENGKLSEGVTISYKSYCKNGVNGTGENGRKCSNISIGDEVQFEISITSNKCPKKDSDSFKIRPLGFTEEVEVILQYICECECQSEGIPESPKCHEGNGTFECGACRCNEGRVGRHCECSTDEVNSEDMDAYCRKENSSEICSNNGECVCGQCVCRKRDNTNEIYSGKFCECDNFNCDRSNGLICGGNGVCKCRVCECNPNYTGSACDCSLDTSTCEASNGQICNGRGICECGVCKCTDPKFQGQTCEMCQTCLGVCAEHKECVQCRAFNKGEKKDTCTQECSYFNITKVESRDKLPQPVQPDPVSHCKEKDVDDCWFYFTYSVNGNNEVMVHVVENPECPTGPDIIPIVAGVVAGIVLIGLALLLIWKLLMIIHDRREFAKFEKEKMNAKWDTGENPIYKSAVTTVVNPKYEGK

Row | Compound | IC50 (human α4β7; [5]) [µM] | IC50 (α4β1 [1]; [6]) [µM] | further results
1 | O=C(Nc1ccc(CC(NC(=O)C2C3CCC(CC3)N2C(=O)CCO)C(=O)O)cc1)c1c(Cl)cccc1Cl (centres unmarked) [Cpd 9] | 0.067 | 0.135 | –
2 | O=C(O)C(Cc1ccc(OC(=O)N2CCOCC2)cc1)NC(=O)C1C2CCC(CC2)N1C(=O)CCc1ccc2c(c1)OCO2 (centres unmarked) [Cpd 23] | 0.277 | 0.217 | –
3 | O=C(Nc1ccc(CC(NC(=O)C2C3CCC(CC3)N2C(=O)CSc2ccc(F)cc2)C(=O)O)cc1)c1c(Cl)cncc1Cl (centres unmarked) [Cpd 2] | 0.02 | 0.006 | –
4 | CS(=O)(=O)CC(=O)N1C2CCC(CC2)C1C(=O)NC(Cc1ccc(NC(=O)c2c(Cl)cncc2Cl)cc1)C(=O)O (centres unmarked) [Cpd 5] | 0.032 | 0.017 | –
5 | Phenylacetyl-Leu-Asp-Phe-D-Pro-NH2 | – | – | efficacy in heart allograft model [2]: effective; efficacy in oxazolone-induced contact hypersensitivity [3]: efficacy similar to the α4 antibody PS/2; IC50 (α4β1 [4]): 2 µM
6 | O=C(Nc1ccc(CC(NC(=O)C2C3CCC(CC3)N2C(=O)CS(=O)(=O)c2ccccc2)C(=O)O)cc1)c1c(Cl)cncc1Cl (centres unmarked) [Cpd 6] | 0.027 | 0.015 | –
7 | CN(C)CCC(=O)N1C2CCC(CC2)C1C(=O)NC(Cc1ccc(NC(=O)c2c(Cl)cncc2Cl)cc1)C(=O)O (centres unmarked) [Cpd 16] | 0.177 | 0.023 | –
8 | COCCC(=O)Nc1ccc(CC(NC(=O)C2C3CCC(CC3)N2C(=O)CCOC)C(=O)O)cc1 (centres unmarked) [Cpd 13] | 2.37 | > 1 | –
9 | NCCC(=O)N1C2CCC(CC2)C1C(=O)NC(Cc1ccc(NC(=O)c2c(Cl)cncc2Cl)cc1)C(=O)O (centres unmarked) [Cpd 15] | 0.06 | 0.029 | –
10 | O=C(Nc1ccc(CC(NC(=O)C2C3CCC(CC3)N2C(=O)CSc2ccncc2)C(=O)O)cc1)c1c(Cl)cncc1Cl (centres unmarked) [Cpd 3] | 0.006 | 0.006 | –
11 | COCCC(=O)N1C2CCC(CC2)C1C(=O)NC(Cc1ccc(OC(=O)N(C)C)cc1)C(=O)O (centres unmarked) [Cpd 14] | – | – | IC50 (human α4β7): 0.304 µM; IC50 (α4β1 [1]): 1.27 µM
12 | O=C(O)C(Cc1ccc(OC(=O)N2CCOCC2)cc1)NC(=O)C1C2CCC(CC2)N1C(=O)CCO (centres unmarked) [Cpd 10] | 0.896 | > 1 | –
13 | O=C(Nc1ccc(CC(NC(=O)C2C3CCC(CC3)N2C(=O)CCO)C(=O)O)cc1)c1c(Cl)cncc1Cl (centres unmarked) [Cpd 8] | 0.006 | 0.004 | –
14 | CC(C)(O)CCCC(=O)N1C2CCC(CC2)C1C(=O)NC(Cc1ccc(NC(=O)c2c(Cl)cncc2Cl)cc1)C(=O)O (centres unmarked) [Cpd 11] | 0.047 | 0.014 | –
15 | COCCC(=O)N1C2CCC(CC2)C1C(=O)NC(Cc1ccc(NC(=O)c2c(Cl)cncc2Cl)cc1)C(=O)O (centres unmarked) [Cpd 12] | 0.117 | 0.008 | –
16 | O=C(Nc1ccc(CC(NC(=O)C2C3CCC(CC3)N2C(=O)CCc2ccc3c(c2)OCO3)C(=O)O)cc1)c1c(Cl)cccc1Cl (centres unmarked) [Cpd 22] | 0.035 | 0.045 | –
17 | O=C(Nc1ccc(CC(NC(=O)C2C3CCC(CC3)N2C(=O)CSc2ccccn2)C(=O)O)cc1)c1c(Cl)cncc1Cl (centres unmarked) [Cpd 1] | 0.01 | 0.009 | –

— US20050176755A1, “Aza-bridged-bicyclic amino acid derivatives as alpha4 integrin antagonists” (priority 2003, published 2005)
